Literature values in US12502373B2, “High-content abamectin emulsifiable concentrate” (Rotam Agrochem International Company Limited, priority 2021, dated 2025).

Key:
[1] = pH: 5-9 and 25° C.

In the case of Abamectin, the “oral LD50” value (rats) is listed as 1470 mg/kg and the “hydrolysis of the aqueous solution” value [1] is listed as “will not be hydrolysed”.
